Molecular target: Recombinant human PAI-1 (Homo sapiens, UniProt P05121)
Assay: Plasma clot lysis assay for testing of PAI-1 inhibitors
Assay type: biochemical
Conditions: clot lysis in platelet-poor plasma (50%), PAI-1 10-13 ng/mL, t-PA 34 ng/mL, 37° C.; IC50 = concentration at which a halving of the clot lysis time was reached
Description: Plasma Clot Lysis Assay for Testing of PAI-1 Inhibitors
CaCl2, p.a. Stock solution 0.1 M in water.
PAI-1 inhibitors dissolved in 100% DMSO.
Clot Lysis in Platelet-Poor Plasma
Blood from healthy fat-fasting volunteers was collected into 0.13 M trisodium citrate, 9 parts blood to 1 part anticoagulant. The tubes were centrifuged at 2000×g, 20 min, at RT. The supernatant, ie, the platelet poor plasma was pooled, aliquoted and frozen at −85° C. until used. At the day of experiment the plasma was thawed in a water bath and temperated to 37° C. All other constituents, except t-PA, were prewarmed to 37° C. To each well on a microtiter plate, 25 μL CaCl2, 25 μL PAI-1 or 25 μL PAI-1 vehicle, 20 μL saline and 5 μL drug or 5 μL vehicle (100% DMSO) were added. Plasma was mixed with cold t-PA solution in the relation 4 parts plasma with 1 part t-PA, just before adding 125 μL of this mixture to each well. The final concentration was 12.5 mM for CaCl2, 10-13 ng/mL for PAI-1, 34 ng/mL for t-PA, and the compounds were tested at a final concentration range 0.1 nM to 0.25 mM. The final plasma concentration was 50%, as a result of the different additives. The plate, covered with a plastic lid, was placed in a Microplate reader (Molecular Devices, US) and gently shaken. The change in turbidity was immediately monitored as a change in absorbance at 405 nm at 37° C. Data points were collected at intervals of 2 min, during a period of 10 h. After finished reading, the absorbance data were transformed into files containing the time and absorbance values for each well. The clot longevity, ie, the time the clot exists, was determined as the time between clot formation, ie, positive Vmax, and clot lysis, ie, negative Vmax. The effect of the drugs, ie, shortening of the longevity for the clot, was expressed as the concentration at which a halving of the clot lysis time was reached, the IC50 (pIC50=−log IC50). Control clot lysis time, set to 100%, was determined in the presence of PAI-1, and the maximal effect, ie, the shortest lysis time that can be reached under defined conditions in this system, in the absence of PAI-1 was set to 0%.
Compounds having a pIC50 higher than 4 were considered as being active.

Chain of Recombinant human PAI-1 (P05121 24-402): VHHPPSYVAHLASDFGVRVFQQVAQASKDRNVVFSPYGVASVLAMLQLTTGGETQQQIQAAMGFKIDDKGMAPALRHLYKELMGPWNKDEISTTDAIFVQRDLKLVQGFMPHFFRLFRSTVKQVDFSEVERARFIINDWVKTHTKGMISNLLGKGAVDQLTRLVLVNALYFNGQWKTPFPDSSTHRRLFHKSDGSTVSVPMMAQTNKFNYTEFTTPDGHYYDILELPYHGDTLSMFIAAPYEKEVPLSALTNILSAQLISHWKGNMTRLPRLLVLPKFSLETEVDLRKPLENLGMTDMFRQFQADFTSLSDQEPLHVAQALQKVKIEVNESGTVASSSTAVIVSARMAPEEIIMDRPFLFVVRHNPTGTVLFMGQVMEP

Question: Which IC50 does the source give for `CC(C)Cc1n[nH]c2c(=O)n3c(c(-c4cccc(C(F)(F)F)c4)c12)SC[C@H]3C(=O)O` [Example 21, (7R)-3-isobutyl-9-oxo-4-[3-(trifluoromethyl)phenyl]-1,6,7,9-tetrahydropyrazolo[4,3-d][1,3]thiazolo[3,2-a]pyridine-7-carboxylic acid] here?
Answer: 25.1 µM

Question: `CCCc1n[nH]c2c(=O)n3c(c(-c4cccc(C(F)(F)F)c4)c12)SC[C@H]3C(=O)O` [Example 22, (7R)-9-oxo-3-propyl-4-[3-(trifluoromethyl)phenyl]-1,6,7,9-tetrahydropyrazolo[4,3-d][1,3]thiazolo[3,2-a]pyridine-7-carboxylic acid] was tested. Which IC50 did it give?
Answer: 20 µM

Question: For `CCCCCc1n[nH]c2c(=O)n3c(c(-c4cccc(C(F)(F)F)c4)c12)SC[C@H]3C(=O)O` [Example 23, (7R)-9-oxo-3-pentyl-4-[3-(trifluoromethyl)phenyl]-1,6,7,9-tetrahydropyrazolo[4,3-d][1,3]thiazolo[3,2-a]pyridine-7-carboxylic acid], which IC50 is on record?
Answer: 15.8 µM

Question: How did the IC50 turn out when `O=C(O)[C@@H]1CSc2c(-c3cccc(C(F)(F)F)c3)c3cn[nH]c3c(=O)n21` [Example 24, (7R)-9-oxo-4-[3-(trifluoromethyl)phenyl]-1,6,7,9-tetrahydropyrazolo[4,3-d][1,3]thiazolo[3,2-a]pyridine-7-carboxylic acid] was run?
Answer: 25.1 µM

Question: For `CCCCCCc1n[nH]c2c(=O)n3c(c(-c4cccc(C(F)(F)F)c4)c12)SC[C@H]3C(=O)O` [Example 25, (7R)-3-hexyl-9-oxo-4-[3-(trifluoromethyl)phenyl]-1,6,7,9-tetrahydropyrazolo[4,3-d][1,3]thiazolo[3,2-a]pyridine-7-carboxylic acid], which IC50 is on record?
Answer: 12.6 µM

Question: With `CCn1nc(CC(C)C)c2c(-c3cccc(C(F)(F)F)c3)c3n(c(=O)c21)[C@H](C(=O)O)CS3` [Example 27, (7R)-1-ethyl-3-isobutyl-9-oxo-4-[3-(trifluoromethyl)phenyl]-1,6,7,9-tetrahydropyrazolo[4,3-d][1,3]thiazolo[3,2-a]pyridine-7-carboxylic acid] as the compound, how does the IC50 read?
Answer: 79.4 µM

Question: `CCCCCCc1n[nH]c2c(=O)n3c(c(-c4ccc(F)c(F)c4)c12)SC[C@H]3C(=O)O` [Example 28, (7R)-4-(3,4-difluorophenyl)-3-hexyl-9-oxo-1,6,7,9-tetrahydropyrazolo[4,3-d][1,3]thiazolo[3,2-a]pyridine-7-carboxylic acid] was tested. Which IC50 did it give?
Answer: 50.1 µM

Question: How did the IC50 turn out when `CCCCCCc1n[nH]c2c(=O)n3c(c(-c4ccc(F)c(F)c4)c12)SC[C@H]3C(=O)NS(=O)(=O)c1ccccc1` [Example 29, (7R)-4-(3,4-difluorophenyl)-3-hexyl-9-oxo-N-(phenylsulfonyl)-1,6,7,9-tetrahydropyrazolo[4,3-d][1,3]thiazolo[3,2-a]pyridine-7-carboxamide] was run?
Answer: 6.31 µM

Molecular target: T1, Aβ 1-40 (Homo sapiens, UniProt P05067)
T1 construct: Lyophilized Aβ 1-40 was dissolved to 500 μM in 4 mM NaOH and divided in two parts
T1 sequence (P05067 672-711): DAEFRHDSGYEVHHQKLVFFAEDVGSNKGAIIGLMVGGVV
Assay: Aβ aggregation assay for testing of inhibition of amyloid fibril formation (Thioflavin T fluorescence)
Assay type: biochemical
Conditions: 100 μM Aβ 1-40, 5% DMSO, 37° C., 24 hours; FIG. 1
Description: Effect of test substances on aggregation of Aβ 1-40 was measured by detecting fluorescence of added Thioflavin T (ThT). The ThT-fluorescence of Aβ 1-40 aggregated in the presence of the indicated substances was compared to the ThT-fluorescence of Aβ 1-40 aggregated in the presence of 5% DMSO.
Aβ Aggregation Assay for Testing of Inhibition Amyloid Fibril Formation
Lyophilized Aβ 1-40 was dissolved to 500 μM in 4 mM NaOH and divided in two parts. One part was diluted to 20 μM in PBS (50 mM phosphate buffer pH 7.4 containing 100 mM NaCl) and coated onto an ELISA 96-well plate (Costar) for 1 h at room temperature. The plate was washed in PBS to remove unbound Aβ 1-40. Substances (in DMSO) were diluted with PBS to different concentrations in the Aβ 1-40 coated ELISA plate. The second part of NaOH-solubilized Aβ 1-40 was thereafter added to each well to yield a final concentration of 100 μM Aβ 1-40 and 5% DMSO. The plate was incubated at 37° C. with agitation (600 rpm) for 24 hours to allow aggregation of Aβ 1-40.
The Aβ-substance mix was after aggregation diluted 10 times with 25 μM Thioflavin T (ThT) in PBS. The ThT-fluorescence was detected immediately by excitation at 450 nm and emission at 482 nm. The ThT-fluorescence of Aβ 1-40 aggregated with substances was compared to the ThT-fluorescence of Aβ 1-40 aggregated in the presence of 5% DMSO.

Question: With `CC(C)Cc1n[nH]c2c(=O)n3c(c(-c4cccc(C(F)(F)F)c4)c12)SC[C@H]3C(=O)O` [Example 21, (7R)-3-isobutyl-9-oxo-4-[3-(trifluoromethyl)phenyl]-1,6,7,9-tetrahydropyrazolo[4,3-d][1,3]thiazolo[3,2-a]pyridine-7-carboxylic acid] as the compound, how does the “Effect on aggregation of Aβ 1-40 (ThT-fluorescence compared to 5% DMSO)” value (from here on “Effect … (ThT-fluorescence compared to 5% DMSO)”) read?
Answer: interfere with the formation of amyloid fibrils

Question: How did the “Effect … (ThT-fluorescence compared to 5% DMSO)” value turn out when `CC(C)CC1=NN=C2C(=O)N3C(SC[C@H]3C(=O)O)C(c3ccccc3)=C12` (stereo partly drawn) [Example 37, (7R)-6,7-dihydro-3-isobutyl-4-phenyl-pyrazolo[4,5-d]thiazolo[3,2-a]pyridine-9-one-7-carboxylic acid] was run?
Answer: interfere with the formation of amyloid fibrils

Question: With `COc1ccc(C2=NN=C3C(=O)N4C(SC[C@H]4C(=O)O)C(c4ccccc4)=C32)cc1` (stereo partly drawn) [Example 39, (7R)-6,7-dihydro-3-(4-methoxyphenyl)-4-phenyl-pyrazolo[4,5-d]thiazolo[3,2-a]pyridine-9-one-7-carboxylic acid] as the compound, how does the “Effect … (ThT-fluorescence compared to 5% DMSO)” value read?
Answer: interfere with the formation of amyloid fibrils
